Assay results from PMC11009648, “Development of an orally bioavailable mSWI/SNF ATPase degrader and acquired mechanisms of resistance in prostate cancer” (Proceedings of the National Academy of Sciences of the …, 2024).

How the values were obtained:
22Rv1 AUR-3 cells = test: CellTiter-Glo cell viability assay in AU-15330-resistant 22Rv1 AUR-3 cells (ABCB1 overexpression); type: cell-based, human; conditions: for IC50: 22Rv1 AUR-3
From the text: (§1) The rising importance of the mSWI/SNF complex as a therapeutic target and the success ([32], [33]) of developing next-generation PROTAC degraders targeting the mSWI/SNF complex prompted us to proactively study potential resistance mechanisms that cancer cells may develop in response to this class of compounds. To achieve this, we cultured 22Rv1 cells in either DMSO or a lethal dose of AU-15330 for 1 mo, refreshing the drug twice a week, until resistant cells emerged. Upon obtaining a population of resistant cells, we unbiasedly characterized the genomic and transcriptomic alterations using whole-exome sequencing and bulk RNA sequencing (RNA-seq), respectively (Fig. 3A).
(§2) Cells were seeded onto 96-well plates in appropriate culture media and allowed to adhere overnight prior to treatment. The next day, a nine-point serial dilution of the compounds was prepared and added to the plates. After treatment, the cells were then incubated for an additional 5 d. On the last day of treatment, the CellTiter-Glo cell viability assay (Promega) was then executed in accordance with the manufacturer’s guidelines. The signal (luminescence) from each well was determined using an Infinite M1000 Pro plate reader (Tecan). Relative viability was determined by dividing the signal from each well by the average of the control condition in each experiment. Finally, the data were analyzed and plotted using GraphPad Prism.

[1] = tested on: 22Rv1-wild type (WT) cells; test: CellTiter-Glo cell viability assay in 22Rv1 wild type cells; type: cell-based, human; conditions: 22Rv1 WT
Description: as §2

[2] = tested on: SMARCA4, PBRM1 and SMARCA2 in 22Rv1-AUR-3 xenografts; test: 22Rv1-AUR-3 xenograft pharmacodynamics study; conditions: 5 d; AU-15330 60 mg/kg retro-orbital; zosuquidar 10, 20 or 40 mg/kg i.p.
Description: (§3) Lysates were prepared using radioimmunoprecipitation assay buffer (Thermo Fisher) with cOmpleteTM protease inhibitor cocktail tablets (Sigma-Aldrich) added. Total protein for each sample was determined using the DC Protein Assay (Bio-Rad) according to the manufacturer’s instructions. A standardized quantity of protein was resolved using NuPAGE Tris-Acetate Protein Gel (3 to 8%) (Thermo Fisher) or NuPAGE Bis-Tris Protein Gel (4 to 12%) (Thermo Fisher) and probed with primary antibodies as indicated. Following incubation with secondary antibodies conjugated with horseradish peroxidase, membranes were imaged on an Odyssey Fc Imager (LiCOR Biosciences).
For the 22Rv1-AUR-3 model, bilateral subcutaneous dorsal flank tumors were established by injecting 1 × 10^6 cells suspended in a 1:1 mixture of serum-free medium and Matrigel (BD Biosciences). Once tumors reached an average volume of 100 mm^3, mice were randomized and treated with either 60 mg/kg AU-15330 by retro-orbital vein injection 3 times every other day and with or without 10 mg/kg, 20 mg/kg, or 40 mg/kg of zosuquidar by intraperitoneal injection daily for 5 d per week. […] Animals harboring tumors approaching that size were immediately killed. All in vivo studies were approved by the U-M IACUC.

22Rv1 AUR-2 cells = test: CellTiter-Glo cell viability assay in AU-15330-resistant 22Rv1 AUR-2 cells (SMARCA4 mutation); type: cell-based, human; conditions: dose-response (Fig. S4C)
From the text: as §1
as §2, with “On the last day of treatment, the CellTiter-Glo cell viability assay (Promega) was then executed in accordance with the manufacturer’s guidelines.” left out

[3] = tested on: mutant forms of SMARCA4 in HEK293 cells; test: Immunoblot of overexpressed flag-tagged mutant SMARCA4 in HEK293 cells; type: cell-based, human; conditions: 24 h treatment
From the text: GFP-SMARCA4 (Addgene, 65391) was used for the SMARCA4 mutation clone. The pLVX-TetOne-Puro-hAXL (Addgene, 124797) backbone was used as a starting point prior to undergoing a series of modifications. The endogenous target gene was removed, and a multiple cloning site (MCS) was inserted downstream of the endogenous promoter. Custom gblocks containing Flag-tagged WT SMARCA4 were synthesized (Integrated DNA Technologies, IDT) and inserted into the MCS. Subsequently, custom gblocks containing SMARCA4-N1540S, SMARCA4-I1551del, or SMARCA4-F1485S were inserted to replace the respective portion of WT SMARCA4. Finally, the TRE3G promoter was replaced with hPGK.
HEK293 cells were seeded overnight and transfected with Lipofectamine 3,000 (Thermo Fisher) according to the manufacturer’s protocol. Media were changed 8 h post transfection and incubated for 48 h prior to conducting further analyses.

[4] = tested on: VCaP castration-resistant tumor model; set-up: method as in PMID 34937944; conditions: VCaP CRPC model, AU-15330 60 mg/kg; not an arm of this study; cited from earlier work
[5] = tested on: SMARCA4, SMARCA2 and PBRM1 in 22Rv1 AUR-2 cells; test: Immunoblot of target degradation in 22Rv1 AUR-2 cells; type: cell-based, human; conditions: 4 h, AU-15330 1 µM, AU-24118 0.1 µM
Description: as §3

[6] = tested on: VCaP castration-resistant tumor model; test: CRPC-VCaP xenograft efficacy study; type: in vivo; conditions: castrated CB17 SCID mice; enzalutamide 10 mg/kg oral gavage five times weekly; AU-24118 15 mg/kg oral gavage three times weekly
Description: Six-week-old CB17 (male) SCID mice were obtained from the breeding colony at the U-M. For all studies, tumors were measured two or three times per week using digital calipers, and tumor volumes were calculated using the formula (π/6) (L × W2), where L is length and W is width of the tumor. At study endpoint, mice were killed, and tumors were extracted and weighed. […] Once tumors grew to a palpable size (~400 mm^3), the mice were physically castrated. Once those tumors regained their precastration size, mice were then randomized and treated with either 15 mg/kg AU-24118 or vehicle by oral gavage 3 d per week with or without enzalutamide (10 mg/kg) by oral gavage 5 d per week for 4 wk.
IHC was performed on 4 µm formalin-fixed, paraffin-embedded tissue sections using BRG1 (SMARCA4), AR, FOXA1, ERG and C-Myc. The IHC process was performed on the Ventana ULTRA automated slide staining system using the Omnimap and Ultraview Universal DAB detection kit. The antibody details are provided in SI Appendix, Table S1. The following commercial kits from Roche-Ventana Medical System were used: Discovery CC1 (Cat No. 950-500), Discovery CC2 (Cat No. 950-123), OptiView Universal DAB Detection Kit (Cat No. 760-700), and OmniMap Universal DAB Detection Kit (Cat No. 760-149).
The TUNEL and In Situ Cell Death Detection Kits (TMR Red #12156792910; Roche Applied Science) were used to examine apoptosis, following the manufacturer’s instructions. Briefly, fixed sections were permeabilized with Triton X-100 and then washed in phosphate-buffered saline. Labeling was carried out at 37 °C for 60 min by addition of a reaction buffer that contained enzymes. A Zeiss Axiolmager M1 microscope was used to obtain images.

[7] = Fig. 4G/H, 5 d, without zosuquidar
[8] = Homo sapiens, 22Rv1, 120 h, Fig. 4G/H, 5 d, without zosuquidar
[9] = Homo sapiens, 22Rv1, Fig. S6A, siABCB1
[10] = Homo sapiens, 22Rv1, Fig. S6A, siNT (negative control)

## Cc1cc([C@H](C(=O)N2C[C@H](O)C[C@H]2C(=O)N[C@@H](CC(=O)N2CCC(N3CCC(C#Cc4ccc(C(=O)NC5C(C)(C)C(Oc6ccc(C#N)c(Cl)c6)C5(C)C)cc4)CC3)CC2)c2ccc(-c3scnc3C)cc2)C(C)C)on1 (stereo partly drawn) [ARD-61, reference compound]
22Rv1 AUR-3 cells; 22Rv1 AUR-3 cells (Fig. S5 E and F)
  sensitivity of AUR-3 cells versus WT: dramatically less sensitive
22Rv1 AUR-3 cells; [7]
  IC50: > 30000 nM
[1]; [7]
  IC50: 800 nM

## Cc1ncsc1-c1ccc([C@H](C)NC(=O)[C@@H]2C[C@@H](O)CN2C(=O)[C@@H](NC(=O)CN2CCN(c3cc(-c4ccccc4O)nnc3N)CC2)C(C)(C)C)cc1 [AU-15330]
[2]
  degradation of target proteins in tumors, immunoblot: unable to degrade any of its target proteins alone
22Rv1 AUR-3 cells; [8]
  IC50: 28500 nM
22Rv1 AUR-3 cells; Homo sapiens, 22Rv1, Fig. S5F
  IC50: 20500 nM
22Rv1 AUR-3 cells; [9]
  IC50: 990 nM
22Rv1 AUR-3 cells; [10]
  IC50: > 30000 nM
22Rv1 AUR-2 cells
  ability to cause a decrease in cell viability: unable
[3]
  degradation of overexpressed mutant SMARCA4, immunoblot: resistant to degradation
[4]
  tumor response as a single agent: more modest effects as a single agent
[1]; [8]
  IC50: 2.3 nM
[1]; Homo sapiens, 22Rv1, Fig. S5F
  IC50: 40.7 nM
[1]; [9]
  IC50: 48.9 nM
[1]; [10]
  IC50: 45.5 nM
[5]
  degradation of SMARCA2 and PBRM1, immunoblot: able to degrade SMARCA2 and PBRM1
  degradation of SMARCA4, immunoblot: unable to degrade SMARCA4

## CNC(=O)c1ccc(N2C(=S)N(c3ccc(C#N)c(C(F)(F)F)c3)C(=O)C2(C)C)cc1F [Enzalutamide, enzalutamide, reference compound]
[6]
  tumor response: moderate tumor growth inhibition
